Experiments:
human NaP2b (SLC34A2) = target: T1, human NaP2b (SLC34A2) (Homo sapiens, UniProt O95436); assay: Inhibition of NaP2b-mediated Pi (33P) uptake in transfected HEK293 cells, human NaP2b; type: cell-based; conditions: for IC50: read-out: pIC50 range for human NaP2b (converted)
T1 construct: host or cells: HEK293
T1 sequence (O95436 1-690): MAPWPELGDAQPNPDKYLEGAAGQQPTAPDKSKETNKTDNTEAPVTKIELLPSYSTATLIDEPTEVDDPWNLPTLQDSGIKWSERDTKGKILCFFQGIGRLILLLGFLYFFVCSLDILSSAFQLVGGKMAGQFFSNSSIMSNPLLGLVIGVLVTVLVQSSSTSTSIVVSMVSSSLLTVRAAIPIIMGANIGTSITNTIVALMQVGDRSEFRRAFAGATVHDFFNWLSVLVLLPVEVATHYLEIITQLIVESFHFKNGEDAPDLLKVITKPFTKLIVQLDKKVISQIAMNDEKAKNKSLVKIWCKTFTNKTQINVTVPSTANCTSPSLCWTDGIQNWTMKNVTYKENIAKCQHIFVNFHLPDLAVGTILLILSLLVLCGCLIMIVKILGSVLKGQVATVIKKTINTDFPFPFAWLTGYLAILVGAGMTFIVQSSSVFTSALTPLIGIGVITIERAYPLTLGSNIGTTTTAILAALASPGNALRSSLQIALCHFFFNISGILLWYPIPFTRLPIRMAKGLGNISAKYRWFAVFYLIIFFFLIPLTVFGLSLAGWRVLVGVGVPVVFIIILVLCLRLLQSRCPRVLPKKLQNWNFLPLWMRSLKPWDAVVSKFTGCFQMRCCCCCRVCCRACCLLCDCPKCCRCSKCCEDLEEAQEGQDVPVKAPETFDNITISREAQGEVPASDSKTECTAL
Method: HEK293 cells were obtained from the American Type Culture collection and propagated per their instructions. Expression clones for rat and human NaP2b (SLC34A2) were obtained from Open Biosystems (Catalog numbers MRN1768-9510282, and MHS1010-99823026, respectively). The sequence of the human protein was mutated to insert a threonine after residue 37, and to introduce a N39D mutation.
The rate of phosphate (Pi) uptake into HEK293 cells was measured using a modification of the method described by Mohrmann et al. (Mohrmann, I., Mohrmann, M., Biber, J., and Murer, H. (1986) Am. J. Phys. 250(3 Pt 1):G323-30.) Transfected HEK293 cells were treated with a pharmacological agent to minimize endogenous PiT-mediated phosphate transport activity, such that the only remaining sodium-dependent phosphate transport activity is that which was bestowed by introduction of the NaP2b genes.
Cells were seeded into 96-well plates at 25,000 cells/well and cultured overnight. Lipofectamine 2000 (Invitrogen) was used to introduce the NaP2b cDNA, and the cells were allowed to approach confluence during a second overnight incubation. […] Cells were then overlayed with either choline uptake buffer or sodium uptake buffer (14 mM Tris, 137 mM sodium chloride, 5.4 mM KCl, 2.8 mM CaCl2, 1.2 mM MgSO4, 100 uM KH2PO4, PiT-silencing agent, 1 mg/mL Bovine Serum Albumin, pH 7.4) containing 6-9 uCi/mL ^33P orthophosphoric acid (Perkin Elmer) and test compound. Each compound was tested at twelve concentrations ranging from 0.1 nM to 30 uM. Assays were run in duplicate.
After incubation for 3-30 minutes at room temperature, assay mixtures were removed, and the cells were washed twice with ice cold stop solution (137 mM sodium chloride, 14 mM Tris, pH 7.4). Cells were lysed by addition of 20 μL 0.1% Tween 80 followed by 100 μL scintillation fluid, and counted using a TopCount (Perkin Elmer).
pIC50 (the negative log of the IC50) values of the test compounds were calculated using GraphPad Prism.

rat NaP2b (SLC34A2) = target: T2, rat NaP2b (SLC34A2) (Rattus norvegicus, UniProt Q9JJ09); assay: Inhibition of NaP2b-mediated Pi (33P) uptake in transfected HEK293 cells, rat NaP2b; type: cell-based; conditions: 33P Pi uptake, 0.1 mM phosphate, value given as pIC50 range
T2 construct: host or cells: HEK293
T2 sequence (Q9JJ09 1-695): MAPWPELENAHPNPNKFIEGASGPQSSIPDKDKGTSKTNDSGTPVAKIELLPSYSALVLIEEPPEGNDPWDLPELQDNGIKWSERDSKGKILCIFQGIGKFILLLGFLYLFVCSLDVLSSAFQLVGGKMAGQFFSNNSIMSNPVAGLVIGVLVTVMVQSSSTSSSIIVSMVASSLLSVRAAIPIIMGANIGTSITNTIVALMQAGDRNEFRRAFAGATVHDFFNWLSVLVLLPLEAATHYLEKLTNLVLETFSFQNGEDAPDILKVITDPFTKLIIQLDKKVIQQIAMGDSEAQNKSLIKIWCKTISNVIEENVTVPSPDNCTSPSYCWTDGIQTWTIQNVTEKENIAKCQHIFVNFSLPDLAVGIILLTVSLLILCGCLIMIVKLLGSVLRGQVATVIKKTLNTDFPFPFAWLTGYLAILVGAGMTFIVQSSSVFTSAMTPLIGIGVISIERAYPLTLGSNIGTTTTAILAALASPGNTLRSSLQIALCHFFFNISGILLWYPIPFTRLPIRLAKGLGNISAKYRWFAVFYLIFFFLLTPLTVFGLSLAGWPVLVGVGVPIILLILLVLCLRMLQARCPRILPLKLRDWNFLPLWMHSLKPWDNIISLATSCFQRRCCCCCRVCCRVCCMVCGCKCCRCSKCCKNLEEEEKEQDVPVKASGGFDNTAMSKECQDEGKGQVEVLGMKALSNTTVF
Outline: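 The cells transiently expressed NaP2b after Lipofectamine transfection. Each compound was run in duplicate over twelve concentrations, 0.1 nM–30 uM.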

[1] = Determination of compound Cmax and AUC after oral gavage (plasma LC-MS/MS); type: in vivo, Sprague-Dawley rats; conditions: Sprague-Dawley, rat, plasma, po, Structure (I) examples, Table 15, actual oral dose 3-15 mg/kg, plasma 0.5-4 h
Method: (§1) Sprague-Dawley rats were orally gavaged with test article at a nominal dose of 2.5 or 10 mg/kg and blood was collected at 0.5, 1, 2 and 4 h. Blood samples were processed to plasma using K2EDTA as an anticoaglulant. Plasma samples were treated with acetonitrile containing an internal standard, precipitated proteins removed by centrifugation. Supernatants were analyzed by LC-MS/MS and compound concentrations were determined by interpolation from a standard curve prepared in plasma. All compounds were orally dosed at the dosage shown, and pharmacokinetic parameters determined.
as §1, with “interpolated” for “interpolation”
as §1, with “interpolated” for “interpolation”

| pIC50 range for human NaP2b (human NaP2b (SLC34A2); 33P Pi uptake, transfected HEK293 cells, 0.1 mM phosphate, value given as pIC50 range) | pIC50 range for rat Nap2b (rat NaP2b (SLC34A2)) | IC50 (human NaP2b (SLC34A2)) [µM] | IC50 (rat NaP2b (SLC34A2)) [µM] | AUC [1] [ng·h/mL] | Cmax [1] [ng/mL] | Compound |
| --- | --- | --- | --- | --- | --- | --- |
|  |  | 1 to 7.94 | 1 to 7.94 |  |  | O=C(O)CCSCc1cccc(C(=O)Nc2ccc(N3CCCCC3)cc2-c2cc(NCc3cccc(C(F)(F)F)c3)ncn2)c1 [Example 3.1, 3-((3-((4-(Piperidin-1-yl)-2-(6-((3-(trifluoromethyl)benzyl)amino)pyrimidin-4-yl)phenyl)carbamoyl)benzyl)thio)propanoic acid] |
|  |  | 10 to 31.6 | 10 to 31.6 |  |  | COc1ccc(CNc2cc(-c3cc(N4CCCCC4)ccc3NC(=O)c3cccc(CSCCC(=O)O)c3)ncn2)cc1OC [Example 3.6, 3-((3-((2-(6-((3,4-Dimethoxybenzyl)amino)pyrimidin-4-yl)-4-(piperidin-1-yl)phenyl)carbamoyl)benzyl)thio)propanoic acid] |
|  |  | 10 to 31.6 | 10 to 31.6 |  |  | O=C(O)CCSCc1cccc(C(=O)Nc2ccc(N3CCCCC3)cc2-c2cc(NCc3ccccc3)ncn2)c1 [Example 3.7, 3-((3-((2-(6-(Benzylamino)pyrimidin-4-yl)-4-(piperidin-1-yl)phenyl)carbamoyl)benzyl)thio)propanoic acid] |
|  |  | 10 to 31.6 | 1 to 7.94 |  |  | O=C(O)CCSCc1cccc(C(=O)Nc2ccc(N3CCCCC3)cc2-c2cc(Nc3cccc(C(F)(F)F)c3)ncn2)c1 [Example 3.10, 3-((3-((4-(Piperidin-1-yl)-2-(6-((3-(trifluoromethyl)phenyl)amino)pyrimidin-4-yl)phenyl)carbamoyl)benzyl)thio)propanoic acid] |
|  |  | 1 to 7.94 | 1 to 7.94 |  |  | O=C(CCSCc1cccc(C(=O)Nc2ccc(N3CCCCC3)cc2-c2cc(C(=O)NCc3cccc(C(F)(F)F)c3)ccn2)c1)NCCOCCOCCOCCOCCOCCOCCOCCO [Example 4.19, 2-(2-(3-(29-Hydroxy-5-oxo-9,12,15,18,21,24,27-heptaoxa-2-thia-6-azanonacosyl)benzamido)-5-(piperidin-1-yl)phenyl)-N-(3-(trifluoromethyl)benzyl)isonicotinamide] |
|  |  | < 1 | 1 to 7.94 |  |  | CN(Cc1cncn1C)C(=O)c1cccc(C(=O)Nc2ccc(N3CCCCC3)cc2-c2cc(C(=O)NCc3cccc(C(F)(F)F)c3)ccn2)c1 [Example 4.26] |
|  |  | < 1 | 1 to 7.94 |  |  | O=C(O)CCOCCOCCOCCNC(=O)c1cccc2c1ccn2Cc1cccc(C(=O)Nc2ccc(N3CCCCC3)cc2-c2cc(C(=O)NCc3cccc(C(F)(F)F)c3)ccn2)c1 [Example 9.2, 1-Oxo-1-(1-(3-((4-(piperidin-1-yl)-2-(4-((3-(trifluoromethyl)benzyl)carbamoyl)pyridin-2-yl)phenyl)carbamoyl)benzyl)-1H-indol-4-yl)-5,8,11-trioxa-2-azatetradecan-14-oic acid] |

Further lines, the compound ahead of its results:

| Compound | pIC50 range for human NaP2b (human NaP2b (SLC34A2); 33P Pi uptake, transfected HEK293 cells, 0.1 mM phosphate, value given as pIC50 range) | pIC50 range for rat Nap2b (rat NaP2b (SLC34A2)) | IC50 (human NaP2b (SLC34A2)) [µM] | IC50 (rat NaP2b (SLC34A2)) [µM] | AUC [1] [ng·h/mL] | Cmax [1] [ng/mL] |
| --- | --- | --- | --- | --- | --- | --- |
| 16-(3-(4-(16-(3-(4-(diethylamino)-2-(4-(3-(trifluoromethyl)benzylcarbamoyl)pyridin-2-yl)phenylcarbamoyl)phenyl)-4,7,10,13-tetraoxahexadecane)piperazine-1-carbonyl)phenyl)-4,7,10,13-tetraoxahexadecan-1-oic acid [Example 293] | 5.1-6.0 | 5.1-6.0 |  |  |  |  |
| CN(CCO)C(=O)c1cccc(C(=O)Nc2ccc(N3CCCCC3)cc2-c2cc(C(=O)NC3CCCc4ccccc43)ccn2)c1 (stereo in doubt) [Example 115, (S)—N^1-(2-hydroxyethyl)-N′-methyl-N^3-(4-(piperidin]-yl)-2-(4-((1,2,3,4-tetrahydronaphthalen-1-yl)carbamoyl)pyridin-2-yl)phenyl)isophthalamide] |  |  | < 1 | < 1 |  |  |
| CN(CCN1CCOCC1)C(=O)c1cccc(C(=O)Nc2ccc(N3CCCCC3)cc2-c2cc(C(=O)N[C@@H]3CCCc4ccccc43)ccn2)c1 [Example 97] |  |  | 1 to 7.94 | 1 to 7.94 |  |  |
| CN(CCN1CCOCC1)C(=O)c1cccc(C(=O)Nc2ccc(N3CCCCC3)cc2-c2cc(C(=O)NCc3ccc(C(C)(C)C)cc3)ccn2)c1 [Example 122, N1-(2-(4-((4-tert-butylbenzyl)carbamoyl)pyridin-2-yl)-4-(piperidin-1-yl)phenyl)-N3-methyl-N3-(2-morpholinoethyl)isophthalamide] |  |  | 1 to 7.94 | 1 to 7.94 |  |  |
| CN(CCN1CCOCC1)C(=O)c1cccc(C(=O)Nc2ccc(OC3CCC3)cc2-c2cc(C(=O)N[C@H]3CCCc4ccccc43)ccn2)c1 [Example 132, N1-(2-(4-(((S)-1,2,3,4-tetrahydronaphthalen-1-yl)carbamoyl)pyridin-2-yl)-4-cyclobutoxyphenyl)-N3-methyl-N3-(2-morpholinoethyl)isophthalamide] |  |  | < 1 | < 1 |  |  |
| CN(C)C(=O)C1CCN(CCN(C)C(=O)c2cccc(C(=O)Nc3ccc(N4CCCCC4)cc3-c3cc(C(=O)N[C@H]4CCCc5ccccc54)ccn3)c2)CC1 [Example 218, (S)—N1-(2-(4-(dimethylcarbamoyl)piperidin-1-yl)ethyl)-N1-methyl-N3-(4-(piperidin-1-yl)-2-(4-(1,2,3,4-tetrahydronaphthalen-1-ylcarbamoyl)pyridin-2-yl)phenyl)isophthalamide] |  |  |  | 1 to 7.94 | < 30 | < 10 |
| CN(CCOCCOCCOCCC(=O)O)C(=O)c1cccc(C(=O)Nc2ccc(N3CCCCC3)cc2-c2cc(C(=O)N[C@H]3CCCc4ccccc43)ccn2)c1 [Example 249, 3-[2-(2-{2-[N-methyl-1-(3-{[4-(piperidin-1-yl)-2-(4-{[(1S)-1,2,3,4-tetrahydronaphthalen-1-yl]carbamoyl}pyridin-2-yl)phenyl]carbamoyl}phenyl)formamido]ethoxy}ethoxy)ethoxy]propanoic acid] |  |  |  | 1 to 7.94 | < 30 | < 10 |

Reference: patent US20140023611A1 (priority 2010, published 2014)
